Measurements: US10597388B2, “Pyridazinone herbicides” (FMC CORPORATION, priority 2014, dated 2020)

Legend:
Test in all cases: Test D controlled growth environment herbicide test, pre- and postemergence
Format in all cases: in vivo
[1] = tested on: field violet (Viola arvensis)
Summary of the method: (§1)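 Species sown in silt loam and sprayed preemergence, or grown in peat-based medium to 2–18 cm (1- to 4-leaf stage) and sprayed postemergence, with compounds in non-phytotoxic solvent plus surfactant. Visual injury scored versus controls after 14–21 d in a controlled environment, 0 (no effect) to 100 (complete control).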

[2] = tested on: pigweed (Amaranthus retroflexus)
Summary of the method: as §1

[3] = tested on: ryegrass, Italian (Italian ryegrass, Lolium multiflorum)
Summary of the method: as §1

[4] = tested on: deadnettle (henbit deadnettle, Lamium amplexicaule)
Summary of the method: as §1

[5] = tested on: chickweed (common chickweed, Stellaria media)
Summary of the method: as §1

[6] = tested on: field poppy (Papaver rhoeas)
Summary of the method: as §1

[7] = tested on: radish, wild (wild radish, Raphanus raphanistrum)
Summary of the method: as §1

[8] = tested on: wheat, winter (winter wheat, Triticum aestivum)
Summary of the method: as §1

[9] = tested on: Russian thistle (Salsola kali)
Summary of the method: as §1

[10] = tested on: wheat, spring (spring wheat, Triticum aestivum)
Summary of the method: as §1

[11] = tested on: blackgrass (Alopecurus myosuroides)
Summary of the method: as §1

[12] = tested on: oilseed rape (Brassica napus)
Summary of the method: as §1

[13] = tested on: windgrass (Apera spica-venti)
Summary of the method: as §1

[14] = Postemergence, 31 g ai/ha, scale 0 to 100 (0 no effect, 100 complete control)
[15] = Postemergence, 125 g ai/ha, visual rating on scale 0 (no effect) to 100 (complete control), 14 to 21 d
[16] = Postemergence, 250 g ai/ha, scale 0 to 100 (0 no effect, 100 complete control)
[17] = Preemergence, 62 g ai/ha, scale 0 to 100 (0 no effect, 100 complete control)
[18] = Preemergence, 125 g ai/ha, scale 0 to 100 (0 no effect, 100 complete control)
[19] = Preemergence, 250 g ai/ha, scale 0 to 100 (0 no effect, 100 complete control)
[20] = postemergence, 62 g ai/ha, scale 0 to 100, 0 no effect, 100 complete control

Cc1ccc2ccc(C)c(-c3c(O)c(C)nn(C)c3=O)c2c1 [Compound 60]
0: Plant response rating (scale of 0 to 100), Oilseed Rape ([12]; Preemergence, 31 g ai/ha)
98: Plant response rating, Windgrass [13, 16]
70: Deadnettle plant response rating [4, 14] | Plant response rating, Russian Thistle [9, 19] | Plant response rating, Oilseed Rape [12, 20]
85: Plant response rating, Field Violet [1, 16] | Plant response rating, Deadnettle [4, 18] | Chickweed plant response rating [5, 14] | Plant response rating, Field Poppy [6, 15] | Plant response rating, Russian Thistle [9, 16] | Plant response rating, Blackgrass [11, 15] | Plant response rating (scale of 0 to 100), Windgrass ([13]; Preemergence, 31 g ai/ha) | Plant response rating, Windgrass [13, 20]
40: Plant response rating, Wheat, Winter [8, 16] | Plant response rating, Wheat, Spring [10, 15] | Plant response rating, Oilseed Rape [12, 18]
60: Field Poppy plant response rating [6, 14]
25: Wheat, Winter plant response rating [8, 14]
75: Pigweed plant response rating [2, 14] | Plant response rating, Deadnettle [4, 20] | Plant response rating (scale of 0 to 100), Field Poppy ([6]; Preemergence, 31 g ai/ha) | Plant response rating, Field Poppy [6, 20] | Plant response rating, Radish, Wild [7, 20] | Plant response rating, Wheat, Spring [10, 19] | Blackgrass plant response rating [11, 14] | Plant response rating, Oilseed Rape [12, 15]
20: Plant response rating, Russian Thistle [9, 17]
100: Plant response rating, Field Violet [1, 15] | Plant response rating, Field Violet [1, 17] | Plant response rating, Field Violet [1, 18] | Plant response rating, Field Violet [1, 19] | Plant response rating, Pigweed [2, 15] | Plant response rating, Pigweed [2, 16] | Plant response rating (scale of 0 to 100), Pigweed ([2]; Preemergence, 31 g ai/ha) | Plant response rating, Pigweed [2, 17] | Plant response rating, Pigweed [2, 18] | Plant response rating, Pigweed [2, 19] | Plant response rating (scale of 0 to 100), Ryegrass, Italian ([3]; Preemergence, 31 g ai/ha) | Plant response rating, Ryegrass, Italian [3, 17] | Plant response rating, Ryegrass, Italian [3, 18] | Plant response rating, Ryegrass, Italian [3, 19] | Plant response rating, Deadnettle [4, 19] | Plant response rating, Chickweed [5, 15] | Plant response rating, Chickweed [5, 16] | Plant response rating, Chickweed [5, 17] | Plant response rating, Chickweed [5, 18] | Plant response rating, Chickweed [5, 19] | Plant response rating, Chickweed [5, 20] | Plant response rating, Field Poppy [6, 16] | Plant response rating, Field Poppy [6, 17] | Plant response rating, Field Poppy [6, 18] | Plant response rating, Field Poppy [6, 19] | Plant response rating, Blackgrass [11, 18] | Plant response rating, Blackgrass [11, 19] | Plant response rating, Windgrass [13, 18] | Plant response rating, Windgrass [13, 19]
10: Plant response rating (scale of 0 to 100), Wheat, Winter ([8]; Preemergence, 31 g ai/ha)
90: Plant response rating, Ryegrass, Italian [3, 15] | Plant response rating, Ryegrass, Italian [3, 20] | Plant response rating, Deadnettle [4, 17] | Plant response rating, Radish, Wild [7, 17] | Plant response rating, Radish, Wild [7, 19] | Plant response rating, Blackgrass [11, 16] | Plant response rating (scale of 0 to 100), Blackgrass ([11]; Preemergence, 31 g ai/ha) | Plant response rating, Windgrass [13, 15] | Plant response rating, Windgrass [13, 17]
55: Plant response rating (scale of 0 to 100), Radish, Wild ([7]; Preemergence, 31 g ai/ha) | Plant response rating, Wheat, Winter [8, 18] | Plant response rating, Wheat, Winter [8, 19] | Plant response rating, Wheat, Spring [10, 16] | Plant response rating, Wheat, Spring [10, 17]
35: Plant response rating (scale of 0 to 100), Deadnettle ([4]; Preemergence, 31 g ai/ha) | Plant response rating, Wheat, Winter [8, 15] | Plant response rating, Wheat, Winter [8, 17] | Plant response rating, Russian Thistle [9, 18] | Plant response rating (scale of 0 to 100), Wheat, Spring ([10]; Preemergence, 31 g ai/ha) | Plant response rating, Wheat, Spring [10, 20]
15: Plant response rating (scale of 0 to 100), Russian Thistle ([9]; Preemergence, 31 g ai/ha) | Plant response rating, Oilseed Rape [12, 17]
95: Plant response rating (scale of 0 to 100), Field Violet ([1]; Preemergence, 31 g ai/ha) | Plant response rating, Field Violet [1, 20] | Plant response rating, Pigweed [2, 20] | Plant response rating, Ryegrass, Italian [3, 16] | Plant response rating, Deadnettle [4, 15] | Plant response rating, Deadnettle [4, 16] | Plant response rating (scale of 0 to 100), Chickweed ([5]; Preemergence, 31 g ai/ha) | Plant response rating, Radish, Wild [7, 15] | Plant response rating, Radish, Wild [7, 16] | Plant response rating, Radish, Wild [7, 18] | Plant response rating, Blackgrass [11, 17]
80: Field Violet plant response rating [1, 14] | Ryegrass, Italian plant response rating [3, 14] | Russian Thistle plant response rating [9, 14] | Plant response rating, Russian Thistle [9, 15] | Plant response rating, Russian Thistle [9, 20] | Plant response rating, Blackgrass [11, 20] | Plant response rating, Oilseed Rape [12, 16] | Plant response rating, Oilseed Rape [12, 19] | Windgrass plant response rating [13, 14]
30: Plant response rating, Wheat, Winter [8, 20] | Wheat, Spring plant response rating [10, 14]
65: Radish, Wild plant response rating [7, 14] | Plant response rating, Wheat, Spring [10, 18] | Oilseed Rape plant response rating [12, 14]
